The source of these data is publication PMC11833175, “Synthesis, characterization, antimicrobial, cytotoxic and carbonic anhydrase inhibition activities of multifunctional pyrazolo-1,2-benzothiazine acetamides” (Beilstein Journal of Organic Chemistry, 2025).

For data set [1], the system named is Candida albicans (ATCC 90027). The data set can be described thus: Microbroth single-dose antimicrobial assay, C. albicans. In kind it is cell-based. Particulars: C. albicans ATCC 90027, value (SD); for percent survival at 125 µg/mL: ATCC90027, single dose 125 μg/mL. How it is done:
(§1) Microbroth single dose antimicrobial assays were performed against different pathogens including susceptible Staphylococcus aureus (ATCC 25923), Escherichia coli (ATCC 8739), and Candida albicans (ATCC 90027). Pathogens were treated with 125 μg/mL of tested compounds in duplicate.
(§2) The antimicrobial evaluation of the targeted compounds was carried out against five different pathogens including Staphylococcus aureus (susceptible, ATCC 25923; methicillin-resistant, ATCC BAA-41; multidrug-resistant, ATCC BAA-44), Escherichia coli ATCC 8739, and Candida albicans ATCC 90027. Reference antibiotics and final concentrations used as positive controls in these experiments were kanamycin (susceptible S. aureus, 50 μg), vancomycin (methicillin and multidrug-resistant S. aureus, 25 μg), ampicillin (E. coli, 50 μg), and amphotericin B (C. albicans, 25 μg). The final concentration of the tested compounds was 125 μg/mL for microbroth single-dose assays. Dimethyl sulfoxide was used at a final concentration of 0.1% as negative control. […] American type culture collection (ATCC, Manassas, VA, USA) has provided all microbial strains used in above experiments.
(§3) Antimicrobial Single-dose assay for compounds 7(a-n) against
(§4) S. aureus E. coli C. albicans
(§5) Figure S43: Graph showing results of antimicrobial single-dose microbroth assays of compounds 7a–n, dose of tested compounds = 125 μg/mL, control antibiotic s used: kanamycin = 50 μg/mL (Staphylococcus aureus ATCC 25923), ampicillin = 50 μg/mL (Escherichia coli ATCC 8739), and amphotericin B = 25 μg/mL (Candida albicans ATCC 90027). Dimethylsulfoxide ( DMSO) was used as the negative control at 1.25% […]
(§6) Table S1: Results of single-dose antimicrobial and cytotoxic assays for compounds 7a–n; dosage of tested compounds = 125 μg/mL; antibiotic control dosage (kanamycin = 50 μg/mL (Staphylococcus aureus ATCC 25923), ampicillin = 50 μg/mL (Escherichia coli ATCC 8739), and amphotericin B = 25 μg/mL (Candida albicans ATCC 90027).
(§7) For cytotoxic assays, dosage of tested compounds = 10 μM; dosage of mensacarcin […]
(§8) Percent survival / % Cell viability
(§9) Samples S. aureus E.coli (SD) C. albicans (SD) HCT-116 […]

For data set [2], the system named is Escherichia coli (ATCC 8739). The data set can be described thus: Microbroth single-dose antimicrobial assay, E. coli. In kind it is cell-based. Particulars: E. coli ATCC 8739, value (SD); for percent survival at 125 µg/mL: ATCC8739, single dose 125 μg/mL. How it is done:
as §1, §2, §3, §4, §5, §6, §7, §8, §9

Data set [3] concerns the target human carbonic anhydrase CA XII (Homo sapiens, UniProt O43570). The data set can be described thus: hCA inhibition, stopped-flow CO2 hydration method, CA XII. The following applies: mean from three assays, errors ±5–10%.
Method: (§15) In vitro assessment of all targeted pyrazolobenzothiazine scaffolds for human carbonic anhydrase (hCA) inhibition was performed adopting a stopped-flow CO2 hydration method. The enzyme inhibition assays were carried out for four types of human CA isoforms: CA I, CA II, CA IX, and XII. […] Reason for the selection of these CA isoforms was to develop a comparative relationship for inhibition selectivity between CAs (IX, XII) attributed to tumour/cancer and other CAs (I, II). […] Analyses were carried out in-house using recombinant enzymes as described.
Data set [4] has as its target human carbonic anhydrase CA IX (Homo sapiens, UniProt Q16790). The data set can be described thus: hCA inhibition, stopped-flow CO2 hydration method, CA IX. Particulars: mean from three assays, errors ±5–10%.
Method: as §15
In data set [5] the target is human carbonic anhydrase CA II (Homo sapiens, UniProt P00918). The data set can be described thus: hCA inhibition, stopped-flow CO2 hydration method, CA II. The following applies: mean from three assays, errors ±5–10%.
Method: as §15
Data set [6] deals with human carbonic anhydrase CA I (Homo sapiens, UniProt P00915). The data set can be described thus: hCA inhibition, stopped-flow CO2 hydration method, CA I.
human carbonic anhydrase CA I, sequence (P00915 whole entry): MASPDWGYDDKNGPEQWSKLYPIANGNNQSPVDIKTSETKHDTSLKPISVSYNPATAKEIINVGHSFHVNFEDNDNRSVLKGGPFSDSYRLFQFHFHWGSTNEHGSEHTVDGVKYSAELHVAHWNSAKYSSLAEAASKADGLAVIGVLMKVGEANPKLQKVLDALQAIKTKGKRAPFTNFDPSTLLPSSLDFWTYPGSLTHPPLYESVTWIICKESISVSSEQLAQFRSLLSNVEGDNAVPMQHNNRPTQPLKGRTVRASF
Method: as §15
Data set [7] concerns Staphylococcus aureus (ATCC 25923). The data set can be described thus: Microbroth single-dose antimicrobial assay, susceptible S. aureus. Type of data set: cell-based. Particulars: single dose 125 μg/mL; for percent survival of S. aureus at 125 µg/mL: Staphylococcus aureus, ATCC25923, S. aureus ATCC 25923, value (SD). How it is done:
as §1, §2, §3, §4, §5, §6, §7, §8, §9

Data set [8] has as its system multidrug-resistant S. aureus (ATCC BAA-44). The data set can be described thus: Microbroth dilution assay (MIC90), multidrug-resistant S. aureus. Type of data set: cell-based, Staphylococcus aureus. The following applies: Staphylococcus aureus. How it is done:
(§10) Microbroth dilution assays were performed for the determination of MIC (minimum inhibitory concentration, MIC90) values for compounds 7b and 7h against three different strains of Staphylococcus aureus: susceptible (ATCC 25923), methicillin-resistant (ATCC BAA-41), and multidrug-resistant (ATCC BAA-44).
as §2

Data set [9] is described as follows: Single-dose MTT cell viability assay. In kind it is cell-based, human. Particulars: human, HCT-116 cells (ATCC CCL-247), 48 h, 0.1% DMSO control = 100%, value (SD). How it is done:
(§11) Single-dose MTT assays were performed for compounds 7a–n against the human colon cancer mammalian cell line (HCT-116, ATCC CCL-247) for evaluating their inhibition of mammalian cell metabolism. Solutions of the tested compounds were prepared in DMSO and cancer cells were treated with 10 μM doses of compounds using the apoptosis inducing standard mensacarcin (10 μM) as a positive control.
(§12) Single-dose MTT assays were performed for compounds 7a–n with the human colon cancer mammalian cell line (HCT-116, ATCC CCL-247) for evaluating the compounds’ inhibitory effects on cell viability. Stock solutions of compounds were prepared in DMSO and cancer cells were treated with 10 μM doses of each compound and mensacarcin (10 μM) as a positive control. MTT in 1X PBS was added for a final concentration of 0.5 mg/mL 48 hours post compound addition to each well. Post incubation at 37 °C was carried out for 2 h. After the removal of the growth media, purple formazan metabolic product was dissolved in DMSO. A Biotek Synergy reader (96-well plate) was used to take absorbance of all samples at 550 nm. Cell viability was calculated as the ability of the metabolically active cells to reduce tetrazolium salt MTT [3-(4,5-dimethylthiazolyl-2)-2,5-diphenyltetrazolium bromide]. Control metabolic activity shown by cells treated with 0.1% DMSO was set to 100% cell growth. […]
as §7, §8, §9
(§13) HCT-116 (Human Colorn cancer cell line) Single -dose assay for […]
(§14) Figure S44: Graph showing cell viability of compounds 7a–n against human colon carcinoma cell line (HCT-116, ATCC CCL-247), dose of tested compounds = 10 μM, dose of positive control (mensacarcin) = 10 μM.

Data set [10] has as its system human colon cancer cell line HCT-116 (ATCC CCL-247). The data set can be described thus: Single-dose MTT cell viability assay. In kind it is cell-based. Particulars: 10 μM. How it is done:
as §11, §12, §7, §8, §9, §13, §14

Data set [11] concerns susceptible S. aureus (ATCC 25923). The data set can be described thus: Microbroth dilution assay (MIC90), susceptible S. aureus. In kind it is cell-based, Staphylococcus aureus. How it is done:
as §10, §2

Data set [12] concerns methicillin-resistant S. aureus (ATCC BAA-41). The data set can be described thus: Microbroth dilution assay (MIC90), methicillin-resistant S. aureus. Type of data set: cell-based, Staphylococcus aureus. The following applies: Staphylococcus aureus, ATCC BAA-41 / MRSA, read-out: MIC90 MRSA. How it is done:
as §10, §2

Where [13] appears, read: read-out: Ki for targeted CAs, XII.
Setting [14] is: read-out: Ki for targeted CAs, IX.
[15] abbreviates: read-out: Ki for targeted CAs, II.
The mark [16] stands for this setting: read-out: Ki for targeted CAs, I, mean from three assays, errors ±5–10%.

Values after ≈ are worked out from the molar mass of the structure shown. Where two headings read alike, the source gives them in different places. Bounds are passed on as bounds.

human carbonic anhydrase CA XII, sequence (O43570 25-354): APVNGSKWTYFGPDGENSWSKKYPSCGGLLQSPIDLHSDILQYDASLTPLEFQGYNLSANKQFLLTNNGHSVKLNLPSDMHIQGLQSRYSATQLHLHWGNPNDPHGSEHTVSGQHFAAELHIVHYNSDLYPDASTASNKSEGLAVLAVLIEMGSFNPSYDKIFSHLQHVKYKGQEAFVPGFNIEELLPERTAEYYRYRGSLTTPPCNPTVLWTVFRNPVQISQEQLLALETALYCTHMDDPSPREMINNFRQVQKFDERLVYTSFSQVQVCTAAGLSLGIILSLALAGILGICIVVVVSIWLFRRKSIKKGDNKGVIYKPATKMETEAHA

In turn, `C[C@@H]1[C@H](O)[C@@H](C)/C=C/C=C/C=C/C=C/C=C/C=C/C=C/[C@H](O[C@@H]2O[C@H](C)[C@@H](O)[C@H](N)[C@@H]2O)C[C@@H]2O[C@](O)(C[C@@H](O)C[C@@H](O)[C@H](O)CC[C@@H](O)C[C@@H](O)CC(=O)O[C@H]1C)C[C@H](O)[C@H]2C(=O)O` [Amphotericin B, amphotericin B, reference compound] gave a percent survival at 25 µg/mL in data set [1] (ATCC90027, antibiotic control 25 μg/mL) of 4.71%.

Take `CC1(C)S[C@@H]2[C@H](NC(=O)[C@H](N)c3ccccc3)C(=O)N2[C@H]1C(=O)O` [Ampicillin, ampicillin, reference compound]: the percent survival at 50 µg/mL in [2] (ATCC8739, antibiotic control 50 μg/mL) came to 4.16%.

Consider `CN1c2c(O)nn(CC(=O)Nc3ccc(Cl)cc3)c2-c2ccccc2S1(=O)=O` [Compound 7a], for which the Ki is 90.2 µM in data set [3] (setting [13]), over 100 µM in [4] (setting [14]), 84.6 µM in data set [5] (setting [15]) and over 100 µM in data set [6] (setting [16]).

Turning to `CN1c2c(O)nn(CC(=O)Nc3cccc(Cl)c3)c2-c2ccccc2S1(=O)=O` [Compound 7b], the Ki in [3] (Ki for targeted CAs, XII) is 77.4 µM; in [4] (Ki for targeted CAs, IX), 72.9 µM; in [5] (Ki for targeted CAs, II), 90.9 µM; in [6], over 100 µM. The percent survival of S. aureus at 125 µg/mL in data set [7] amounted to 37.2%. For the same molecule, in data set [7] (duplicate), the “antibacterial activity against susceptible S. aureus (in words)” value is listed as “significant antibacterial activity”. Besides, the MIC90 in [8] (ATCCBAA44, multidrug-resistant S. aureus ATCC BAA-44, 90% growth inhibition, read-out: MIC90 MDRSA) worked out at 16 µg/mL (≈ 38.2 µM); in data set [11] (Staphylococcus aureus, ATCC25923, 90% growth inhibition) it was 16 µg/mL (≈ 38.2 µM); in data set [12] (methicillin-resistant S. aureus ATCC BAA-41, 90% growth inhibition), 16 µg/mL (≈ 38.2 µM). The percent survival at 125 µg/mL came to 95.3% in data set [2] and 87% in data set [1]. In addition, in [9], the viability at 48 h, 10 µM came out at 88.9%. Also, in [10], the “effect on HCT-116 cell viability (in words)” value is listed as “no significant decrease in mammalian cell viability”.

`CN1c2c(O)nn(CC(=O)NCc3ccccc3)c2-c2ccccc2S1(=O)=O` [Compound 7f]: the Ki in data set [3] (setting [13]) is 79.1 µM; in data set [4] (setting [14]), over 100 µM; in data set [5] (setting [15]), 90.3 µM; in [6] (setting [16]) it was over 100 µM.

As for `CN1c2c(OCC(=O)Nc3ccc([N+](=O)[O-])cc3)nn(CC(=O)Nc3ccc([N+](=O)[O-])cc3)c2-c2ccccc2S1(=O)=O` [Compound 7i], the Ki in data set [3] (setting [13]), in data set [4] (setting [14]), in data set [5] (setting [15]) and in data set [6] (setting [16]) was over 100 µM in each case.

For `COc1ccc(NC(=O)COc2nn(CC(=O)Nc3ccc(OC)cc3)c3c2N(C)S(=O)(=O)c2ccccc2-3)cc1` [Compound 7j], the Ki in data set [3] (Ki for targeted CAs, XII) is over 100 µM; in data set [4] (Ki for targeted CAs, IX) it was over 100 µM; in [5] (Ki for targeted CAs, II), over 100 µM; in data set [6], over 100 µM. The percent survival of S. aureus at 125 µg/mL in data set [7] was over 100%. Moreover, the percent survival at 125 µg/mL in [2] was over 100%; in data set [1] it was 99.5%. Further, in data set [9], the viability at 48 h, 10 µM was over 100%.

`Cc1cccc(NC(=O)COc2nn(CC(=O)Nc3cccc(C)c3C)c3c2N(C)S(=O)(=O)c2ccccc2-3)c1C` [Compound 7k]: the Ki is over 100 µM in data set [3] (Ki for targeted CAs, XII); over 100 µM in [4] (Ki for targeted CAs, IX); over 100 µM in [5] (Ki for targeted CAs, II); over 100 µM in [6]. In addition, the percent survival of S. aureus at 125 µg/mL in [7] was over 100%. The percent survival at 125 µg/mL in data set [2] is 94.2%; in data set [1], over 100%. For the same molecule, the viability at 48 h, 10 µM in data set [9] stood at 90.7%.

In the case of `Cc1ccccc1NC(=O)COc1nn(CC(=O)Nc2ccccc2C)c2c1N(C)S(=O)(=O)c1ccccc1-2` [Compound 7l], the Ki in data set [3] (setting [13]), in data set [4] (setting [14]), in data set [5] (setting [15]) and in data set [6] (setting [16]) was over 100 µM throughout. The “effect on HCT-116 cell viability (in words)” value in data set [10] is “inhibited cell viability”.

For the molecule `Cc1ccc(NC(=O)COc2nn(CC(=O)Nc3ccc(C)cc3)c3c2N(C)S(=O)(=O)c2ccccc2-3)cc1` [Compound 7m], the Ki in data set [3] (setting [13]), in data set [4] (setting [14]), in data set [5] (setting [15]) and in data set [6] (setting [16]) was over 100 µM in each case.

`CN1c2c(OCC(=O)NC3CCCCC3)nn(CC(=O)NC3CCCCC3)c2-c2ccccc2S1(=O)=O` [Compound 7n]: the Ki in data set [3] (setting [13]), in data set [4] (setting [14]), in data set [5] (setting [15]) and in [6] (setting [16]) was over 100 µM each time.

Take `NC[C@H]1O[C@H](O[C@H]2[C@H](O)[C@@H](O[C@H]3O[C@H](CO)[C@@H](O)[C@H](N)[C@H]3O)[C@H](N)C[C@@H]2N)[C@H](O)[C@@H](O)[C@@H]1O` [Kanamycin, kanamycin, reference compound]: the “MIC90 SA” value in data set [11] (90% growth inhibition) was under 1 µg/mL.

As for `CN[C@H](CC(C)C)C(=O)N[C@H]1C(=O)N[C@@H](CC(N)=O)C(=O)N[C@H]2C(=O)N[C@H]3C(=O)N[C@H](C(=O)N[C@H](C(=O)O)c4cc(O)cc(O)c4-c4cc3ccc4O)[C@H](O)c3ccc(c(Cl)c3)Oc3cc2cc(c3O[C@@H]2O[C@H](CO)[C@@H](O)[C@H](O)[C@H]2O[C@H]2C[C@](C)(N)[C@H](O)[C@H](C)O2)Oc2ccc(cc2Cl)[C@H]1O` [vancomycin, reference compound], the MIC90 in data set [8] (ATCCBAA44, read-out: MIC90 MDRSA) was under 1 µg/mL; in [12] it was under 1 µg/mL.
